In patent US12466784B2, “Analogs of pterostilbene amino acid bearing carbonates for treating a non-alcoholic fatty liver disease and nonalcoholic steatohepatitis” (APICAL MOLECULAR BIOTECH CO., LTD., priority 2020, dated 2025):
Where “and” joins values, the source holds several entries; their conditions need not be identical. Identical values can stand only once.

Legend:
[1] = In vitro stability in pH 1.2 solution (USP Gastric fluid without enzymes); settings: 37° C.
Protocol: Sample collection: At 0, 0.17, 0.5, 1, 2, 4 and 6 h, 100 mL of aliquots were taken from the incubation mixture and placed into centrifuge tubes containing 100 μL of ice-cold acetonitrile and 1 μm internal standard where the reaction was terminated.

[2] = system: hepatic steatosis induced by MCD diet; test: Histological examination (H&E stain) of liver of MCD diet mice; type: in vivo, Male C57BL/6 mice; settings: for Avg: average of Scores of the group; for Steatosis / Ballooning / Fibrosis / Inflammation / Steastosis: score per animal; for Steatosis: in PG/TPSG (1:1); for Scores: total score per animal
Protocol: (§1) Animals and experimental protocol: Male C57BL/6 mice, 4 weeks of age, were purchased from Laboratory Animal Center (Taiwan, China) were maintained under the procedures and guidelines provided by the Institutional Animal Care and Use Committee of the Health Research Institutes (Taiwan, China). They were maintained with free access to pellet food and water in stainless-steel cages at a temperature of 21±2° C. with a 12 h light/dark cycle.
(§2) Mice were randomly divided into five groups and treated as follows: (1) MCD diet+PG/TPSG (2) MCD diet+100 mg/kg all compounds. After 28 days, animals were sacrificed for the collection of blood for determination of plasma ALT and AST concentrations, and liver samples for H&E stain.
(§3) After 28 days, animals were sacrificed for the collection of blood for determination of plasma ALT and AST concentrations, and liver samples for H&E stain.

MCD diet NASH mice = test: Serum AST and ALT of compounds treated-NASH mice (MCD diet); type: in vivo, Male C57BL/6 mice
Protocol: as §1, §2, §3

[3] = MCD diet mice, 100 mg/kg oral, PG/TPSG (1:1)
[4] = MCD diet mice, 100 mg/kg oral, PG/TPSG (1:1), dihydrochloride, 100 mg/kg
[5] = sum of Scores of the 4 animals of the group, 100 mg/kg oral, PG/TPSG (1:1)
[6] = MCD diet mice, 100 mg/kg oral (Table 2)
[7] = MCD diet mice, 75 mg/kg oral, hydrochloride, 75 mg/kg
[8] = MCD diet mice, 100 mg/kg oral (Table 3 study)
[9] = MCD diet mice, 100 mg/kg oral (Table 3 study), hydrochloride, 100 mg/kg
[10] = MCD diet mice, 150 mg/kg oral, hydrochloride, 150 mg/kg
[11] = MCD diet mice, 100 mg/kg oral (Table 4 study)
[12] = MCD diet mice, 100 mg/kg oral once daily, 5 times a week
[13] = MCD diet mice, 100 mg/kg oral, PG/TPSG (1:1), hydrochloride, 100 mg/kg
[14] = MCD diet mice, 100 mg/kg oral, PG/TPSG (1:1), 100 mg/kg

COc1cc(/C=C/c2ccc(OC(=O)OCCNC(=O)C(N)Cc3ncc[nH]3)cc2)cc(OC)c1.Cl.Cl (centres unmarked) [Compound 5m, (E)-2-(2-amino-3-(1H-imidazol-2-yl)propanamido)ethyl (4-(3,5-dimethoxy styryl)phenyl) carbonate dihydrochloride]
compound remaining in pH = 1.2 solution (%) ([1]; Time 0 h): 100.0% | compound remaining in pH = 1.2 solution (%) ([1]; Time 0.167 h): 88.6% | compound remaining in pH = 1.2 solution (%) ([1]; Time 0.5 h): 109.8% | compound remaining in pH = 1.2 solution (%) ([1]; Time 1 h): 113.5% | compound remaining in pH = 1.2 solution (%) ([1]; Time 2 h): 102.6% | compound remaining in pH = 1.2 solution (%) ([1]; Time 4 h): 85.6% | effect on MCD diet-induced steatohepatitis (H&E staining), in words ([2]; MCD diet mice, 100 mg/kg oral): prevented MCD diet-induced steatohepatitis | Avg ([2]; 100 mg/kg oral, PG/TPSG (1:1)): 7.25 | Steatosis ([2]; MCD diet mice, 100 mg/kg oral once daily, 5 times a week, dihydrochloride, 100 mg/kg): 2 (2×) and 3 (2×) | Ballooning [2, 3]: 2 | Fibrosis [2, 3]: 0 | Inflammation [2, 4]: 3 (3×) and 2 | Sum [2, 5]: 29 | Scores [2, 4]: 7 and 8 (2×) and 6 | effect on serum concentrations of AST and ALT, in words (MCD diet NASH mice; [6]): significantly inhibited the serum concentrations of AST and ALT | Serum ALT (U/L) (MCD diet NASH mice; [3]): 190.88 U/L | Serum AST (U/L) (MCD diet NASH mice; [3]): 381.75 U/L

(E)-2-(2-amino-3-methylbutanamido)ethyl (4-(3,5-dimethoxystyryl)phenyl) carbonate hydrochloride [Compound 5c]
compound remaining in pH = 1.2 solution (%) ([1]; Time 0 h): 100.0% | compound remaining in pH = 1.2 solution (%) ([1]; Time 0.167 h): 88.5% | compound remaining in pH = 1.2 solution (%) ([1]; Time 0.5 h): 93.2% | compound remaining in pH = 1.2 solution (%) ([1]; Time 1 h): 96.0% | compound remaining in pH = 1.2 solution (%) ([1]; Time 2 h): 91.7% | compound remaining in pH = 1.2 solution (%) ([1]; Time 4 h): 97.4% | anti-NASH/NAFLD activities, in words ([2]; MCD diet mice): significant anti-NASH/NAFLD activities | effect on MCD diet-induced steatohepatitis (H&E staining), in words ([2]; MCD diet mice, 100 mg/kg oral): prevented MCD diet-induced steatohepatitis | effect on MCD diet-induced steatohepatitis (H-E staining), in words ([2]; MCD diet mice, 75, 100 and 150 mg/kg oral (FIG. 1, Table 3)): prevented MCD diet-induced steatohepatitis | Avg ([2]; 75 mg/kg oral): 6.2 | Avg ([2]; 100 mg/kg oral (Table 3 study)): 4.2 | Avg ([2]; 150 mg/kg oral): 3.2 | Ballooning ([2]; MCD diet mice, 75 mg/kg oral): 2 | Inflammation ([2]; MCD diet mice, 75 mg/kg oral): 1 | Steastosis ([2]; MCD diet mice, 75 mg/kg oral once daily, 5 times a week): 3 | Fibrosis [2, 7]: 1 and 0 (4×) | Fibrosis [2, 8]: 0 | Inflammation [2, 8]: 0 | Ballooning [2, 9]: 2 (3×) and 1 (2×) | Steastosis ([2]; MCD diet mice, 100 mg/kg oral once daily, 5 times a week (Table 3 study), hydrochloride, 100 mg/kg): 3 (3×) and 2 (2×) | Fibrosis ([2]; MCD diet mice, 150 mg/kg oral): 0 | Inflammation ([2]; MCD diet mice, 150 mg/kg oral): 0 | Steastosis ([2]; MCD diet mice, 150 mg/kg oral once daily, 5 times a week, hydrochloride, 150 mg/kg): 2 (3×) and 1 and 3 | Ballooning [2, 10]: 1 (4×) and 2 | Sum ([2]; sum of Scores of the 5 animals, 75 mg/kg oral): 31 | Sum ([2]; sum of Scores of the 5 animals, 100 mg/kg oral (Table 3 study)): 21 | Sum ([2]; sum of Scores of the 5 animals, 150 mg/kg oral): 16 | Scores [2, 7]: 7 and 6 (4×) | Scores [2, 9]: 5 (3×) and 3 (2×) | Scores [2, 10]: 3 (3×) and 2 and 5 | Serum ALT (U/L) (MCD diet NASH mice; MCD diet mice, 75 mg/kg oral): 164.40 U/L | Serum AST (U/L) (MCD diet NASH mice; MCD diet mice, 75 mg/kg oral): 275.00 U/L | effect on serum concentrations of AST and ALT, in words (MCD diet NASH mice; [6]): significantly inhibited the serum concentrations of AST and ALT | Serum ALT (U/L) (MCD diet NASH mice; [11]): 92.60 U/L | Serum AST (U/L) (MCD diet NASH mice; [11]): 245.80 U/L | Serum ALT (U/L) (MCD diet NASH mice; [3]): 205.13 U/L | Serum AST (U/L) (MCD diet NASH mice; [3]): 274.00 U/L | Serum ALT (U/L) (MCD diet NASH mice; MCD diet mice, 150 mg/kg oral): 82.80 U/L | Serum AST (U/L) (MCD diet NASH mice; MCD diet mice, 150 mg/kg oral): 192.00 U/L | effect on serum concentrations of AST and ALT, in words (MCD diet NASH mice; MCD diet mice, 75, 100 and 150 mg/kg oral (Table 4)): significantly inhibited the serum concentrations of AST and ALT with dose-dependent manners

COc1cc(/C=C/c2ccc(OC(=O)OCCNC(=O)CN)cc2)cc(OC)c1.Cl [Compound 5a, (E)-2-(2-aminoacetamido)ethyl (4-(3,5-dimethoxystyryl)phenyl) carbonate hydrochloride]
compound remaining in pH = 1.2 solution (%) ([1]; Time 0 h): 100.0% | compound remaining in pH = 1.2 solution (%) ([1]; Time 0.167 h): 104.6% | compound remaining in pH = 1.2 solution (%) ([1]; Time 0.5 h): 104.0% | compound remaining in pH = 1.2 solution (%) ([1]; Time 1 h): 110.2% | compound remaining in pH = 1.2 solution (%) ([1]; Time 2 h): 101.7% | compound remaining in pH = 1.2 solution (%) ([1]; Time 4 h): 103.5% | effect on MCD diet-induced steatohepatitis (H&E staining), in words ([2]; MCD diet mice, 100 mg/kg oral): prevented MCD diet-induced steatohepatitis | Avg ([2]; 100 mg/kg oral, PG/TPSG (1:1)): 7.75 | Steatosis [2, 12]: 3 | Ballooning [2, 3]: 2 | Fibrosis [2, 3]: 0 | Inflammation [2, 13]: 3 (3×) and 2 | Sum [2, 5]: 31 | Scores [2, 13]: 8 (3×) and 7 | effect on serum concentrations of AST and ALT, in words (MCD diet NASH mice; [6]): significantly inhibited the serum concentrations of AST and ALT | Serum ALT (U/L) (MCD diet NASH mice; [3]): 251.75 U/L | Serum AST (U/L) (MCD diet NASH mice; [3]): 283.00 U/L

COc1cc(/C=C/c2ccc(OC(=O)OCCNC(=O)C(N)C(C)C)cc2)cc(OC)c1.O=C(O)c1cccnc1 (centres unmarked) [Compound 5w, (E)-2-(2-amino-3-methylbutanamido)ethyl (4-(3,5-dimethoxystyryl)phenyl) carbonate nicotinate]
compound remaining in pH = 1.2 solution (%) ([1]; Time 0 h): 100.0% | compound remaining in pH = 1.2 solution (%) ([1]; Time 0.167 h): 128.3% | compound remaining in pH = 1.2 solution (%) ([1]; Time 0.5 h): 113.4% | compound remaining in pH = 1.2 solution (%) ([1]; Time 1 h): 123.9% | compound remaining in pH = 1.2 solution (%) ([1]; Time 2 h): 128.5% | compound remaining in pH = 1.2 solution (%) ([1]; Time 4 h): 122.4% | effect on MCD diet-induced steatohepatitis (H&E staining), in words ([2]; MCD diet mice, 100 mg/kg oral): prevented MCD diet-induced steatohepatitis | Avg ([2]; 100 mg/kg oral, PG/TPSG (1:1)): 7.50 | Steatosis ([2]; MCD diet mice, 100 mg/kg oral once daily, 5 times a week, 100 mg/kg): 3 (3×) and 2 | Ballooning [2, 3]: 2 | Fibrosis [2, 3]: 0 | Inflammation [2, 14]: 2 and 3 (3×) | Sum [2, 5]: 30 | Scores [2, 14]: 7 (2×) and 8 (2×) | Serum ALT (U/L) (MCD diet NASH mice; [3]): 214.50 U/L | Serum AST (U/L) (MCD diet NASH mice; [3]): 236.75 U/L

COc1cc(/C=C/c2ccc(OC(=O)OCCNC(=O)CN)cc2)cc(OC)c1.O=C(O)c1cccnc1 [Compound 5v, (E)-2-(2-aminoacetamido)ethyl (4-(3,5-dimethoxystyryl)phenyl) carbonate nicotinate]
compound remaining in pH = 1.2 solution (%) ([1]; Time 0 h): 100.0% | compound remaining in pH = 1.2 solution (%) ([1]; Time 0.167 h): 100.6% | compound remaining in pH = 1.2 solution (%) ([1]; Time 0.5 h): 106.8% | compound remaining in pH = 1.2 solution (%) ([1]; Time 1 h): 101.0% | compound remaining in pH = 1.2 solution (%) ([1]; Time 2 h): 103.0% | compound remaining in pH = 1.2 solution (%) ([1]; Time 4 h): 106.9% | compound remaining in pH = 1.2 solution (%) ([1]; Time 6 h): 84.8% | Avg ([2]; 100 mg/kg oral, PG/TPSG (1:1)): 8.00 | Steatosis [2, 12]: 3 | Ballooning [2, 3]: 2 | Fibrosis [2, 3]: 0 | Inflammation [2, 3]: 3 | Sum [2, 5]: 32 | Scores [2, 3]: 8 | Serum ALT (U/L) (MCD diet NASH mice; [3]): 430.13 U/L | Serum AST (U/L) (MCD diet NASH mice; [3]): 610.25 U/L

CCOc1cc(/C=C/c2ccc(OC(=O)OCCNC(=O)CN)cc2)cc(OCC)c1.Cl [Compound 6b, (E)-2-(2-aminoacetamido)ethyl (4-(3,5-diethoxystyryl)phenyl) carbonate hydrochloride]
compound remaining in pH = 1.2 solution (%) ([1]; Time 0 h): 100.0% | compound remaining in pH = 1.2 solution (%) ([1]; Time 0.167 h): 130.5% | compound remaining in pH = 1.2 solution (%) ([1]; Time 0.5 h): 103.9% | compound remaining in pH = 1.2 solution (%) ([1]; Time 1 h): 111.7% | compound remaining in pH = 1.2 solution (%) ([1]; Time 2 h): 97.9% | compound remaining in pH = 1.2 solution (%) ([1]; Time 4 h): 99.2% | effect on MCD diet-induced steatohepatitis (H&E staining), in words ([2]; MCD diet mice, 100 mg/kg oral): prevented MCD diet-induced steatohepatitis | Avg ([2]; 100 mg/kg oral, PG/TPSG (1:1)): 7.00 | Steatosis ([2]; MCD diet mice, 100 mg/kg oral once daily, 5 times a week, hydrochloride, 100 mg/kg): 3 (2×) and 2 (2×) | Ballooning [2, 3]: 2 | Fibrosis [2, 3]: 0 | Inflammation [2, 13]: 3 (2×) and 2 (2×) | Sum [2, 5]: 28 | Scores [2, 13]: 8 (2×) and 6 (2×) | Serum ALT (U/L) (MCD diet NASH mice; [3]): 454.38 U/L | Serum AST (U/L) (MCD diet NASH mice; [3]): 408.75 U/L
